# Experimental data reported in US20240299556A1, “Magnolol and Sulforaphane Conjgate, and Preparation Method and Use Thereof” (Shenzhen Zhenxing Biomedicine Research Center Co., Ltd., priority 2019, published 2024).
# Read-outs that look alike come from different tables or passages of the source.
# Assays:
# Type in all cases: cell-based
# [1] = system: human lung cancer cell line NCI-H460; experiment: Proliferation of NCI-H460 cells (CCK8 kit)
# Experimental: 2.1 Cultivation of NCI-H460 Cells. The Cells, when Grow to the Logarithmic Growth phase, were digested with 0.25% trypsin, centrifuged at 1000×g for 5 min, and the cell pellet were re-suspended with 1640 medium containing 10% FBS and inoculated in a 96-well culture plate at a density of 5000 cells/well, and then cultured overnight at 37° C., 5% CO2 and saturated humidity.
# 2.2 Six duplicate wells were set in each group, and drugs were added to each well according to the following conditions, and then cultured for 24 h.
# Control group: The group without drugs.
# Magnolol group: Magnolol added at a final concentration of 20 μM.
# CT-1 group: CT-1 added at a final concentration of 20 μM.
# CT-2 group: CT-2 added at a final concentration of 20 μM.
# CT-3 group: CT-3 added at a final concentration of 20 μM.
# The above cells were intervened for 24 hours, and then the effects of drugs on tumor cell proliferation were detected by using CCK8 kit. The specific operations are as follows: […] was added to each well and cultured for 2 h, and then the absorbance (OD) value at a wavelength of 450 nm was measured on a microplate reader, and the cell survival rate of the other groups was calculated on the basis of the cell survival rate of the control group as 100%.
# [2] = system: human gastric cancer cell line AGS; experiment: Proliferation of AGS cells (CCK8 kit); details: 24 h
# Experimental: (§1) Human glioma cell line U251, human lung cancer cell line H1650, human liver cancer cell line HepG2, human breast cancer cell line MDA-MB-231, human gastric cancer cell line AGS, human colon cancer cell line LOVO, human ovarian cancer cell line OVCAR3. 2.1 Cultivation of the above 7 kinds of cancer cells. The cells, when grow to the logarithmic growth phase, were digested with 0.25% trypsin, centrifuged at 1000×g for 5 min, and the cell pellet were re-suspended with 1640 medium containing 10% FBS and inoculated in a 96-well culture plate at a density of 5000 cells/well, and then cultured overnight at 37° C., 5% CO2 and saturated humidity. 2.2 Each group was set up with 6 duplicate wells, and drugs were added to each well according to the following conditions, and then cultured for 24 h. Positive control groups: […] Sulforaphane added at a final concentration of 5.0 μM; • Positive control group 5: Sulforaphane added at a final concentration of 10.0 μM; • Positive control group 6: Sulforaphane added at a final concentration of 20.0 μM. CT-3 groups: Divided into 3 groups: • CT-3 group 1: CT-3 added at a final concentration of 5.0 μM; • CT-3 group 2: CT-3 added at a final concentration of 10.0 μM; • CT-3 group 3: CT-3 added at a final concentration of 20.0 μM. The above cells were intervened for 24 hours, and then the effects of drugs on tumor cell proliferation were detected by using CCK8 kit.
# [3] = system: human hepatic normal cell line LO2; experiment: Apoptosis of normal LO2 cells (apoptosis detection kit, flow cytometry); details: 24 h
# [4] = system: human breast cancer cell line MDA-MB-231; experiment: Proliferation of MDA-MB-231 cells (CCK8 kit); details: MDA-MB-231, 24 h
# Experimental: as §1
# [5] = system: human colon cancer cell line LOVO; experiment: Proliferation of LOVO cells (CCK8 kit); details: 24 h
# Experimental: as §1
# [6] = system: human glioma cell line U251; experiment: Proliferation of U251 cells (CCK8 kit)
# Experimental: as §1
# [7] = system: human lung cancer cell line NCI-H460; experiment: Apoptosis of NCI-H460 cells (apoptosis detection kit, flow cytometry); details: NCI-H460, 10.0 μM, 24 h
# Experimental: (§2) The cells, when grow to the logarithmic growth phase, were digested with 0.25% trypsin, centrifuged at 1000×g for 5 min, and the cell pellet were re-suspended with 1640 medium containing 10% FBS and inoculated in a 96-well culture plate at a density of 3.0×10^5 cells/well, and then cultured overnight at 37° C., 5% CO2 and saturated humidity. 2.2 Each group was set up with 3 duplicate wells, and drugs were added to each well according to the following conditions, and then cultured for 24 h. […] Sulforaphane added at a final concentration of 10.0 μM. CT-3 group: CT-3 added at a final concentration of 10.0 μM. The above cells were intervened for 24 hours, and then the effect of CT-3 on tumor cell apoptosis was determined by apoptosis detection kit and flow cytometry.
# [8] = system: human ovarian cancer cell line OVCAR3; experiment: Proliferation of OVCAR3 cells (CCK8 kit)
# Experimental: as §1
# [9] = system: human liver cancer cell line HepG2; experiment: Proliferation of HepG2 cells (CCK8 kit); details: HepG2, 24 h
# Experimental: as §1
# [10] = system: human colon cancer cell line SW480; experiment: Apoptosis of SW480 cells (apoptosis detection kit, flow cytometry); details: SW480, 10.0 μM, 24 h
# Experimental: as §2, with “in a 6-well culture plate” for “in a 96-well culture plate”, “group: CT-3 was added at” for “group: CT-3 added at”
# [11] = system: seven human cancer cell lines; experiment: Proliferation of seven human cancer cell lines (CCK8 kit), summary over the panel
# Experimental: as §1
# [12] = system: human lung cancer cell line H1650; experiment: Proliferation of H1650 cells (CCK8 kit)
# Experimental: as §1
# [13] = NCI-H460, 20 μM, 24 h, CCK8, read-out: Inhibition Rate (%)
# [14] = CCK8, read-out: Half maximal inhibitory concentration (IC50)
# [15] = LOVO, CCK8, read-out: Half maximal inhibitory concentration (IC50)
# [16] = U-251, U251, 24 h, CCK8, read-out: Half maximal inhibitory concentration (IC50)
# [17] = OVCAR-3, OVCAR3, 24 h, CCK8, read-out: Half maximal inhibitory concentration (IC50)
# [18] = U251, H1650, HepG2, MDA-MB-231, AGS, LOVO, OVCAR3, 24 h, CCK8, read-out: IC50 against 7 kinds of human cancer cells (range over the panel)
# [19] = NCI-H1650, H1650, 24 h, CCK8, read-out: Half maximal inhibitory concentration (IC50)
# [20] = read-out: Half maximal inhibitory concentration (IC50)
SMILES,"inhibition at 20 µM [1, 13] [%]","IC50 [2, 14] [µM]","Apoptosis Rate (%) ([3]; human, 10 μM)","IC50 [4, 14] [µM]","IC50 [5, 15] [µM]","IC50 [6, 16] [µM]",Apoptosis Rate (%) [7] [%],"IC50 [8, 17] [µM]","IC50 [9, 14] [µM]",Apoptosis Rate (%) [10] [%],"IC50 [11, 18] [µM]","IC50 [12, 19] [µM]",other results
C=CCc1ccc(O)c(-c2cc(CC=C)ccc2OCCSCCCCN=C=S)c1 [CT-1],18.4,–,–,–,–,–,–,–,–,–,–,–,–
C[S+]([O-])CCCCN=C=S (stereo not shown) [Sulforaphane],–,18.1,6.52,22.2,18.5,22.5,18.90,18.4,21,19.99,18.4 to 22.5,22,–
C=CCc1ccc(O)c(-c2cc(CC=C)ccc2OCCS(=O)(=O)CCCCN=C=S)c1 [CT-2],70.3,–,–,–,–,–,–,–,–,–,–,–,–
C=CCc1ccc(O)c(-c2cc(CC=C)ccc2O)c1 [Magnolol],–,–,–,–,–,–,3.12,–,–,4.02,–,–,"IC50 [2, 20]: > 45 µM; Apoptosis Rate (%) ([3]; normal LO2 cells, 10.0 μM, flow cytometry): 4.71%; IC50 [4, 20]: > 45 µM; IC50 ([5]; LoVo, read-out: Half maximal inhibitory concentration (IC50)): > 45 µM; IC50 ([6]; U-251, 24 h, read-out: Half maximal inhibitory concentration (IC50)): > 45 µM; IC50 ([8]; OVCAR-3, 24 h, read-out: Half maximal inhibitory concentration (IC50)): > 45 µM; inhibition at 20 µM ([1]; NCI-H460, 24 h, read-out: Inhibition Rate (%)): 1.2%; IC50 [9, 20]: > 45 µM; IC50 ([11]; 24 h, read-out: IC50 against 7 kinds of human cancer cells (range over the panel)): > 45 µM; IC50 ([12]; NCI-H1650, 24 h, read-out: Half maximal inhibitory concentration (IC50)): > 45 µM"
C=CCc1ccc(O)c(-c2cc(CC=C)ccc2OCC[S+]([O-])CCCCN=C=S)c1 (stereo not shown) [CT-3],99,8.02,6.48,7.48,5.1,7.75,73.82,5.34,6.24,61.87,5.1 to 8.02,6.92,–
